Experimental findings from patent publication US11603349B2, “Anti-fibrotic compounds” (Certa Therapeutics Pty Ltd, priority 2017, dated 2023) are described below.

Structures can show the parent of a compound that is named as a salt.

Data set [1] can be described thus: Discrete oral pharmacokinetic studies in male Sprague Dawley rats. The data set is classed as in vivo, rat. Conditions: male SD rats; for adverse compound related effects: 2 and 20 mg/kg single dose, 75 and 350 mg/kg daily (5 days); for change in plasma concentrations between the 75 and 350 mg/kg/day dosing groups: after the initial dose. How it is done: Discrete oral pharmacokinetic studies were performed for example compounds 116, 107, and 102.
116: 2 mg/kg and 20 mg/kg of 116 were administered as single doses to male Sprague Dawley (SD) rats. 75 mg/kg and 350 mg/kg of 116 were administered daily (5 days) to male Sprague Dawley (SD) rats.
107: 2 mg/kg and 20 mg/kg of 107 were administered as single doses to male Sprague Dawley (SD) rats. 75 mg/kg and 350 mg/kg of 107 were administered daily (5 days) to male Sprague Dawley (SD) rats.
102: 2 mg/kg and 20 mg/kg of 102 were administered as single doses to male Sprague Dawley (SD) rats. 75 mg/kg and 350 mg/kg of 102 were administered daily (5 days) to male Sprague Dawley (SD) rats. […] An increase in plasma concentrations were observed between the 75 and 350 mg/kg/day dosing groups.

Data set [2] concerns rat mesangial cells (1097/IRMC cells). The data set can be described thus: MTS tetrazolium reduction cell viability assay. Conditions: TGF-β1 stimulated IRMC cells, vs 1% DMSO vehicle.
Data set [3] can be described thus: MTS tetrazolium reduction cell viability assay. Conditions: rat, rat mesangial cells (1097/IRMC cells), TGF-β1 stimulated, CC50 (μM), vs 1% DMSO vehicle.
Data set [4] relates to TGF-β induced [14C]-proline incorporation in rat mesangial cells. The data set can be described thus: [14C]-proline incorporation assay (collagen biosynthesis). Conditions: Rattus norvegicus, Mesangial cell, 44 h, inhibition of TGF-β1 (1 ng/ml) induced [14C]-proline incorporation, IRMC cells. The data set is classed as cell-based.
A further data set in a line: in vitro. The settings on record: rat, CC50 (μM).
[5] abbreviates: daily, throughout the 5-day study.

On to `COc1ccc(/C=C/C(=O)Nc2ccccc2C(=O)O)c(OCCN(C)C)c1OC` [Example 116, (E)-2-(3-(2-(2-(dimethylamino)ethoxy)-3,4-dimethoxyphenyl)acrylamido)benzoic Acid], for which the “coverage of IC50 relative to a 200 mg/kg/day regime of FT011” value in data set [1] (75 mg/kg) and in data set [1] (350 mg/kg) was “superior” throughout. In addition, the “adverse compound related effects” value in data set [1] is reported as “No adverse compound related effects were observed”. Moreover, in data set [1], the “change in plasma concentrations between the 75 and 350 mg/kg/day dosing groups” value was “little to no increase”. The “trough concentrations, 350 mg/kg/day dosing group” value in data set [1] (setting [5]) is on record as “lower than expected”. The compound also had a CC50 in data set [2] above 300 µM. In data set [3], this compound displayed a CC50 at 48 h of 294 µM.
Take `COc1cc(/C=C/C(=O)Nc2ccccc2C(=O)O)ccc1C1=CCNCC1` [Example 98, (E)-2-(3-(3-methoxy-4-(1,2,3,6-tetrahydropyridin-4-yl)phenyl)acrylamido)benzoic Acid]: the IC50 in data set [4] is 13.5 µM. Besides, the CC50 at 48 h in the data set “in vitro” is 289 µM.
On to `COc1cc(/C=C/C(=O)Nc2ccccc2F)ccc1C1=CCNCC1` [Example 141, (E)-N-(2-fluorophenyl)-3-(3-methoxy-4-(1,2,3,6-tetrahydropyridin-4-yl)phenyl)acrylamide], for which, in data set [4], the IC50 worked out at 4.85 µM. This compound also registered a CC50 at 48 h in “in vitro” of 13.5 µM.
The like results for `COc1cc(/C=C/C(=O)Nc2ccc(C#N)cc2)ccc1C1=CCNCC1` [Example 139, (E)-N-(4-cyanophenyl)-3-(3-methoxy-4-(1,2,3,6-tetrahydropyridin-4-yl)phenyl)acrylamide trifluoroacetic acid salt] were, in that order, 5.36 µM and 9.03 µM.
Consider `COc1cc(/C=C/C(=O)Nc2ccc(F)cc2)ccc1C1=CCNCC1` [Example 120, (E)-N-(4-fluorophenyl)-3-(3-methoxy-4-(1,2,3,6-tetrahydropyridin-4-yl)phenyl)acrylamide], for which 3.22 µM corresponded to half-maximal inhibition in data set [4] (IC50). Moreover, the CC50 at 48 h in “in vitro” stood at 10.8 µM.
The like results for `COc1ccc(/C=C/C(=O)Nc2ccccc2C(=O)O)cc1C1=CCN(C)CC1` [Example 104, (E)-2-(3-(4-methoxy-3-(1-methyl-1,2,3,6-tetrahydropyridin-4-yl)phenyl)acrylamido)benzoic acid trifluoroacetic acid salt] were, in that order, 41.4 µM and 281 µM.
Taken in the same sequence, the figures for `COc1cc(C2CC2C(=O)Nc2ccc(F)cc2)ccc1C1=CCNCC1` (stereo not drawn) [Example 143, N-(4-fluorophenyl)-2-(3-methoxy-4-(1,2,3,6-tetrahydropyridin-4-yl)phenyl)cyclopropane carboxamide trifluoroacetic acid salt] were 2.81 µM and 7.2 µM.
Taken in the same sequence, the figures for `COc1cc(/C=C/C(=O)Nc2ccccc2-n2cnc(C)n2)ccc1C1=CCNCC1` [Example 140, (E)-3-(3-methoxy-4-(1,2,3,6-tetrahydropyridin-4-yl)phenyl)-N-(2-(3-methyl-1H-1,2,4-triazol-l-yl)phenyl)acrylamide trifluoroacetic acid salt] were 8.47 µM and 36.1 µM.
With `COc1cc(C2CC2C(=O)Nc2ccc(C#N)cc2)ccc1C1=CCNCC1` (stereo not drawn) [Example 121, N-(4-cyanophenyl)-2-(3-methoxy-4-(1,2,3,6-tetrahydropyridin-4-yl)phenyl)cyclopropane Carboxamide], in data set [4], the IC50 stood at 3.79 µM. Further, the CC50 at 48 h in “in vitro” came to 8.47 µM.
Compound `COc1cc(C2CC2C(=O)n2nc(O)c3ccccc32)ccc1C1=CCNCC1` (stereo not drawn) [Example 146, (3-hydroxy-1H-indazol-1-yl)(2-(3-methoxy-4-(1,2,3,6-tetrahydropyridin-4-yl)phenyl)cyclopropyl)methanone trifluoroacetic acid salt] returned an IC50 in data set [4] of 19.6 µM. Besides, the CC50 at 48 h in “in vitro” is above 300 µM.
In the case of `CN1CCOc2ccc(/C=C/C(=O)Nc3ccccc3C(=O)O)cc21` [Example 107, 2-[[(E)-3-(4-methyl-2,3-dihydro-1,4-benzoxazin-6-yl)prop-2-enoyl]amino]benzoic Acid], in data set [1] (350 mg/kg), the “coverage of IC50 relative to a 200 mg/kg/day regime of FT011” value is recorded as “superior”. Further, in data set [1], the “adverse compound related effects” value was “No adverse compound related effects were observed”; the “change in plasma concentrations between the 75 and 350 mg/kg/day dosing groups” value is recorded as “an increase”. In addition, the “trough concentrations, 75 and 350 mg/kg/day dosing group” value in data set [1] (setting [5]) is listed as “consistent with dosing amounts”. The CC50 at 48 h in data set [3] was above 100 µM. Also, the IC50 in data set [4] turned out to be 14.9 µM.
Consider `COc1cc(/C=C/C(=O)n2nc(O)c3ccccc32)ccc1C1=CCNCC1` [Example 142, (E)-1-(3-hydroxy-1H-indazol-1-yl)-3-(3-methoxy-4-(1,2,3,6-tetrahydropyridin-4-yl)phenyl)prop-2-en-1-one], for which inhibition in data set [4] was half-maximal at 31.7 µM (IC50). The same compound had a CC50 at 48 h in “in vitro” above 300 µM.
The like results for `COc1cc(/C=C/C(=O)Nc2ccccc2C(=O)O)ccc1C1=CCN(C)CC1` [Example 99, (E)-2-(3-(3-methoxy-4-(1-methyl-1,2,3,6-tetrahydropyridin-4-yl)phenyl)acrylamido)benzoic Acid] were, in that order, 34.7 µM and above 300 µM.
`COc1cc(C2CC2C(=O)Nc2ccccc2-n2cnc(C)n2)ccc1C1=CCNCC1` (stereo not drawn) [Example 144, 2-(3-methoxy-4-(1,2,3,6-tetrahydropyridin-4-yl)phenyl)-N-(2-(3-methyl-1H-1,2,4-triazol-1-yl)phenyl)cyclopropanecarboxamide trifluoroacetic acid salt] had an IC50 in data set [4] of 20.9 µM. The same compound came in with a CC50 at 48 h in “in vitro” of 81 µM.
Compound `COc1cc(C2CC2C(=O)Nc2ccccc2F)ccc1C1=CCNCC1` (stereo not drawn) [Example 145, N-(2-fluorophenyl)-2-(3-methoxy-4-(1,2,3,6-tetrahydropyridin-4-yl)phenyl)cyclopropane carboxamide trifluoroacetic acid] returned an IC50 in data set [4] of 3.71 µM. In the data set “in vitro”, this compound registered a CC50 at 48 h of 11.7 µM.
